According to patent US7642277B2, “Non-nucleoside reverse transcriptase inhibitors” (Boehringer Ingelheim International GmbH, priority 2002, dated 2010):

What follows are compounds tested against T1, HIV-1 RT enzyme (wild type) (Human immunodeficiency virus type 1 group M subtype B, UniProt P04585) (assay: Reverse transcriptase (RT) enzymatic assay (IC50), PicoGreen fluorescence, wild type). Conditions: RT enzymatic assay, wild type; read-out: IC50 WT.
T1 construct: The reverse transcriptase (RT) enzyme assay has been adapted to a 96-well microtiter plate format
Type: biochemical
Protocol: Reverse Transcriptase (RT) Assays Enzymatic Assay (IC50)
The enzymatic assay employed is described as follows: The reverse transcriptase (RT) enzyme assay has been adapted to a 96-well microtiter plate format and uses PicoGreen™ as a fluorescent intercalator. More explicitly, the HIV-1 RT enzyme was thawed and appropriately diluted into Tris/HCl 50 mM pH 7.8 containing NaCl 60 mM, MgCl2∘6H2O 2 mM, DTT 6 mM, GSH 2 mM and 0.02% w/v Chaps to give ≈10 nM enzyme. […] The plate was pre-incubated for 15 minutes at room temperature before proceeding to the next step. […] Then the enzymatic reaction was initiated by addition of 20 μL of substrate solution. […] After addition of the substrate cocktail, the plate was covered with a plastic seal and incubated for 50 minutes at 37° C. in a dry incubator. The reaction was then quenched by addition of 5 μL of EDTA 0.5 M. The plate was shaken for 30 seconds at medium speed and incubated for 5 minutes at room temperature. Then 160 μL of PicoGreen™ 1:400 dilution from commercial stock (diluted in Tris 20 mM pH 7.5 with EDTA 1 mM) was added and the plate was shaken for 30 seconds and incubated for 10 minutes at room temperature. […] Each row contained at its extremities a blank and a control well.
Table legend: A=>100; B=100-50; C=<50; NT=not tested

Row | Compound | IC50 [nM]
1 | O=C(CSc1nnnn1-c1cccc2ncccc12)Nc1ccccc1[N+](=O)[O-] [Entry 106] | > 100
2 | O=C(CSc1nnnn1Cc1ccc2ccccc2c1)Nc1ccccc1[N+](=O)[O-] [Entry 107] | > 100
3 | COC(=O)c1cccc(-n2nnnc2SCC(=O)Nc2ccccc2[N+](=O)[O-])c1 [Entry 120] | > 100
4 | COc1ccc(-n2nnnc2SCC(=O)Nc2ccccc2[N+](=O)[O-])c(OC)c1 [Entry 131] | > 100
5 | Cc1ccccc1-c1ccc(-n2nnnc2SCC(=O)Nc2ccccc2[N+](=O)[O-])c(C)c1 [Entry 132] | > 100
6 | Cc1cccc(C)c1-n1nnnc1SCC(=O)Nc1ccccc1[N+](=O)[O-] [Entry 138] | > 100
7 | CCc1ccccc1NC(=O)CSc1nnnn1-c1cccc2ccccc12 [Entry 203] | > 100
8 | CC(C)c1ccccc1NC(=O)CSc1nnnn1-c1cccc2ccccc12 [Entry 204] | > 100
9 | O=C(CSc1nnnn1-c1cccc2ccccc12)Nc1ccccc1Cc1ccccc1 [Entry 205] | > 100
10 | O=C(CSc1nnnn1-c1cccc2ccccc12)Nc1ccccc1-c1ccccc1 [Entry 206] | > 100
11 | O=C(CSc1nnnn1-c1cccc2ccccc12)Nc1ccccc1F [Entry 207] | > 100
12 | COc1ccccc1NC(=O)CSc1nnnn1-c1cccc2ccccc12 [Entry 212] | > 100
13 | CCOc1ccccc1NC(=O)CSc1nnnn1-c1cccc2ccccc12 [Entry 213] | > 100
14 | O=C(CSc1nnnn1-c1cccc2ccccc12)Nc1ccccc1C(F)(F)F [Entry 214] | > 100
15 | CC(=O)c1ccccc1NC(=O)CSc1nnnn1-c1cccc2ccccc12 [Entry 215] | > 100
16 | COC(=O)c1ccccc1NC(=O)CSc1nnnn1-c1cccc2ccccc12 [Entry 216] | > 100
17 | NC(=O)c1ccccc1NC(=O)CSc1nnnn1-c1cccc2ccccc12 [Entry 217] | > 100
18 | CSc1ccccc1NC(=O)CSc1nnnn1-c1cccc2ccccc12 [Entry 218] | > 100
19 | NS(=O)(=O)c1ccccc1NC(=O)CSc1nnnn1-c1cccc2ccccc12 [Entry 220] | > 100
20 | O=C(CSc1nnnn1-c1cccc2ccccc12)Nc1ccccc1N1CCOCC1 [Entry 221] | > 100
21 | O=C(CSc1nnnn1-c1cccc2ccccc12)Nc1ccccc1-n1cccc1 [Entry 222] | > 100
22 | O=C(CSc1nnnn1-c1cccc2ccccc12)Nc1cccc([N+](=O)[O-])c1 [Entry 223] | > 100
23 | COc1ccc(NC(=O)CSc2nnnn2-c2cccc3ccccc23)cc1 [Entry 224] | > 100
24 | O=C(CSc1nnnn1-c1cccc2ccccc12)Nc1ccc(O)cc1 [Entry 225] | > 100
25 | O=C(CSc1nnnn1-c1cccc2ccccc12)Nc1ccc(-c2ccccc2)cc1 [Entry 226] | > 100
26 | O=C(CSc1nnnn1-c1cccc2ccccc12)Nc1ccc([N+](=O)[O-])cc1 [Entry 227] | > 100
27 | Cc1cccc(NC(=O)CSc2nnnn2-c2cccc3ccccc23)c1C [Entry 228] | > 100

Row | Compound | IC50 [nM]
28 | O=C(CSc1nnnn1-c1cccc2ccccc12)Nc1cccc2c1CCCC2 [Entry 229] | > 100
29 | O=C(CSc1nnnn1-c1cccc2ccccc12)Nc1cccc(Cl)c1F [Entry 232] | > 100
30 | Cc1ccc(NC(=O)CSc2nnnn2-c2cccc3ccccc23)c(C)c1 [Entry 233] | > 100
31 | O=C(CSc1nnnn1-c1cccc2ccccc12)Nc1c(Cl)cccc1Cl [Entry 241] | > 100
32 | COc1cc(NC(=O)CSc2nnnn2-c2cccc3ccccc23)cc(OC)c1 [Entry 242] | > 100
33 | O=C(CSc1nnnn1-c1cccc2ccccc12)Nc1ccccn1 [Entry 243] | > 100
34 | O=C(CSc1nnnn1-c1cccc2ccccc12)Nc1cccnc1 [Entry 244] | > 100
35 | O=C(CSc1nnnn1-c1cccc2ccccc12)Nc1ccncc1 [Entry 245] | > 100
36 | O=C(CNc1nnnn1-c1cccc2ccccc12)Nc1ccccc1[N+](=O)[O-] [Entry 303] | > 100
37 | O=C(CCCc1nnnn1-c1cccc2ccccc12)Nc1ccccc1Cl [Entry 305] | > 100
38 | O=C(CCCc1nnnn1-c1cccc2ccccc12)Nc1ccccc1[N+](=O)[O-] [Entry 306] | > 100
39 | O=C(C=Cc1nnnn1-c1cccc2ccccc12)Nc1ccccc1[N+](=O)[O-] [Entry 307] | > 100
40 | O=[N+]([O-])c1ccccc1C(O)CSc1nnnn1-c1cccc2ccccc12 (stereo not shown) [Entry 309] | > 100
41 | O=[N+]([O-])c1ccccc1CCSc1nnnn1-c1cccc2ccccc12 [Entry 310] | > 100
42 | Clc1ccccc1CCCSc1nnnn1-c1cccc2ccccc12 [Entry 311] | > 100
43 | O=[N+]([O-])c1ccccc1/C=C/CSc1nnnn1-c1cccc2ccccc12 [Entry 312] | > 100
44 | Clc1ccccc1/C=C/CSc1nnnn1-c1cccc2ccccc12 [Entry 313] | > 100
45 | OC(CSc1nnnn1-c1cccc2ccccc12)C(O)c1ccccc1Cl (stereo not shown) [Entry 319] | > 100
46 | O=[N+]([O-])c1ccccc1OCCSc1nnnn1-c1cccc2ccccc12 [Entry 320] | > 100
47 | Clc1ccccc1OCCSc1nnnn1-c1cccc2ccccc12 [Entry 321] | > 100
48 | O=C(OCCSc1nnnn1-c1cccc2ccccc12)c1ccccc1[N+](=O)[O-] [Entry 322] | > 100
49 | O=C(OCCSc1nnnn1-c1cccc2ccccc12)c1ccccc1Cl [Entry 323] | > 100
50 | Clc1ccccc1OCCCSc1nnnn1-c1cccc2ccccc12 [Entry 324] | > 100
51 | O=[N+]([O-])c1ccccc1NCCSc1nnnn1-c1cccc2ccccc12 [Entry 326] | > 100
52 | CN(CCSc1nnnn1-c1cccc2ccccc12)c1ccccc1[N+](=O)[O-] [Entry 327] | > 100
53 | O=[N+]([O-])c1ccccc1CNCCSc1nnnn1-c1cccc2ccccc12 [Entry 328] | > 100
54 | O=[N+]([O-])c1ccccc1NCCCSc1nnnn1-c1cccc2ccccc12 [Entry 329] | > 100

Row | Compound | IC50 [nM]
55 | O=C(NCCSc1nnnn1-c1cccc2ccccc12)c1ccccc1Cl [Entry 331] | > 100
56 | CN(CCSc1nnnn1-c1cccc2ccccc12)C(=O)c1ccccc1Cl [Entry 332] | > 100
57 | O=C(NCCSc1nnnn1-c1cccc2ccccc12)Nc1ccccc1[N+](=O)[O-] [Entry 333] | > 100
58 | O=C(NCCSc1nnnn1-c1cccc2ccccc12)Nc1ccccc1Cl [Entry 334] | > 100
59 | O=C(CSCc1nnnn1-c1cccc2ccccc12)Nc1ccccc1[N+](=O)[O-] [Entry 335] | > 100
60 | O=C(COCc1nnnn1-c1cccc2ccccc12)Nc1ccccc1[N+](=O)[O-] [Entry 336] | > 100
61 | O=C(CNCc1nnnn1-c1cccc2ccccc12)Nc1ccccc1[N+](=O)[O-] [Entry 337] | > 100
62 | CN(CC(=O)Nc1ccccc1[N+](=O)[O-])Cc1nnnn1-c1cccc2ccccc12 [Entry 338] | > 100
63 | c1ccc2c(-n3nnnc3SCc3nc4ccccc4[nH]3)cccc2c1 [Entry 339] | > 100
64 | O=[N+]([O-])c1cccc2[nH]c(CSc3nnnn3-c3cccc4ccccc34)nc12 [Entry 340] | > 100
65 | O=C1c2ccccc2C(=O)N1CCSc1nnnn1-c1cccc2ccccc12 [Entry 341] | > 100
66 | CN(C(=O)CSc1nnnn1-c1cccc2ccccc12)c1ccccc1Cl [Entry 342] | > 100
67 | O=C(Nc1ccccc1[N+](=O)[O-])C1CC1c1nnnn1-c1cccc2ccccc12 (stereo not shown) [Entry 343] | > 100
68 | O=C(CSc1nnnn1-c1cccc2ccccc12)NCc1ccccc1[N+](=O)[O-] [Entry 344] | > 100
69 | O=C(CSc1nnnn1-c1cccc2ccccc12)Cc1ccccc1[N+](=O)[O-] [Entry 345] | > 100
70 | O=C1C(Sc2nnnn2-c2cccc3ccccc23)CCN1c1ccccc1Cl (stereo not shown) [Entry 346] | > 100
71 | O=C(CCC1=C(c2cccc3ccccc23)CCC1)Nc1ccccc1Cl [Entry 405] | > 100
72 | O=C(C[S+]([O-])c1ccccc1-c1cccc2ccccc12)Nc1ccccc1Cl (stereo not shown) [Entry 407] | > 100
73 | O=C(CS(=O)(=O)c1ccccc1-c1cccc2ccccc12)Nc1ccccc1Cl [Entry 408] | > 100
74 | O=C(CCc1ccccc1-c1cccc2ccccc12)Nc1ccccc1Cl [Entry 410] | > 100
75 | O=C(CSc1nc2ccccc2n1-c1ccccc1)Nc1ccccc1[N+](=O)[O-] [Entry 412] | > 100
76 | Cc1ccccc1NC(=O)CSc1nccn1-c1cccc2ccccc12 [Entry 414] | > 100
77 | COc1ccccc1NC(=O)CSc1nccn1-c1cccc2ccccc12 [Entry 415] | > 100
78 | Cc1cc(C)c(-n2nnnc2SCC(=O)c2ccc3c(c2)OCO3)c(C)c1 [Entry 423] | > 100
79 | O=C(CSc1ccccc1Br)Nc1ccccc1Cl [Entry 426] | > 100
